Laboratory results from publication PMC4514675, “Novel Apo E-Derived ABCA1 Agonist Peptide (CS-6253) Promotes Reverse Cholesterol Transport and Induces Formation of preβ-1 HDL In Vitro” (PLoS ONE, 2015).

Experiments:
[1] = test system: BHK-mock cells; experiment: Cholesterol efflux from control cells (unstimulated BHK-ABCA1, BHK-mock), media; assay type: cell-based, hamster
Description: BHK cells stably transfected with an ABCA1 or ABCG1 expression vector that is mifepristone inducible and cells transfected with the same vector lacking the ABCA1 cDNA insert (mutant or mock-transfected) were generously provided by the late Dr. John F. Oram from the Department of Medicine, University of Washington, and were characterized and cultured as previously described. […] Mouse-derived peritoneal macrophages J774 were purchased from American Tissue Culture Collection (ATCC TIB-67, Cederlane, Burlington, Canada). For induction of ABCA1, BHK cells were incubated for 18–20 h with 10 nM mifepristone. […]
Fig 2 Effect of CS-6253 treatment on cholesterol efflux. […] Cholesterol efflux from either ABCA1 cells or control cells to apo A-I (closed circles), and CS-6253 (closed triangles) was determined at the indicated time points. […] ABCA1 was detected from THP-1 foam cells lysis at 4°C with lysis buffer containing 0.5% n-dodecylmaltoside in the presence of a protease inhibitor mixture followed by low speed centrifugation to remove cell debris. Protein concentration was determined by standard assay (Bio-Rad). […] After electrophoresis, ABCA1 was detected by an anti-ABCA1 antibody. […] 3[H]-FC and 3[H]-CE were separated by TLC and located by exposure to iodine vapor, and were scraped off into liquid scintillating vials and assayed for radioactivity. […]

[2] = test system: BHK-ABCA1 plasma membrane microdomains; experiment: Desorption of phosphatidylcholine and sphingomyelin species from raft and non-raft domains of BHK-ABCA1 cells; assay type: cell-based, hamster; conditions: 0.96 μM, 12 h
Procedure: Lipid labeling was performed as described previously with minor modifications. Briefly, BHK-cells were labeled with either 5 μCi/ml ^3[H] choline (Perkin-Elmer) for 48 h or 3 μCi/ml ^3[H] cholesterol (Perkin-Elmer) for 24 h, and then stimulated as described above. Cells were subsequently incubated with lipid-free apoA-I or CS-6253 at (0.96 μM) for 12h, and fractionated by sucrose gradient in the presence of 0.2% Triton X-100. For each fraction, lipids were extracted by Folch and ^3[H]choline-labeled PtdCho, and SM were separated by TLC in the solvent system chloroform-methanol-water (65:35:4; v/v/v), and counted.
Fig 4 Apo A-I (left panels) and CS-6253 (right panels) desorb phospholipids species from raft and nonraft domains. […] After lipid extraction by Folch, ^3[H]phosphatidyl choline (^3[H]PC) (A and B), or ^3[H]sphingomyelin (^3[H]SM) (C and D) in each fraction was assessed for radioactivity. Radioactivity appearing in fractions corresponding to raft (1–5) and nonraft (6–10) material was pooled, and desorption of ^3[H]PC (A and B inset) and ^3[H]SM (C and D inset), from raft versus nonraft in the presence of apo A-I or CS-6253 was expressed as a percentage of control (100%, in the absence of acceptor). ^3[H]PC and ^3[H]SM distributions in sucrose gradient fractions after 12h incubation with apo A-I or CS-6253 were assessed by TLC respectively. […]

apolipoprotein A-I [apo A-I]
maximum cholesterol efflux by diffusion ([1]; BHK mock and unstimulated BHK-ABCA1 cells): 0.75% | cholesterol efflux from control cells ([1]; unstimulated BHK-ABCA1 and BHK-mock, CS-6253 30 μg/ml, apo A-I 10 μg/ml): no significant cholesterol efflux | PC desorption in PM microdomains (in words) [2]: less PC desorption in PM microdomains than CS-6253 | SM desorption [2]: desorbed from both non-raft and raft domains
